Results taken from patent publication US20230001007A1, “Glycan-Interacting Compounds and Methods of Use” (Seagen Inc., priority 2017, published 2023).

Legend:
[1] = tested on: OVCAR3 human ovarian cancer cells; test: OVCAR3 cell line-derived subcutaneous xenograft; format: in vivo, Athymic Nude mouse; details: 20 mg/kg intraperitoneally once per week for three weeks
Description: An Athymic Nude mouse subcutaneous xenograft mouse model was generated with OVCAR3 human ovarian cancer cells. Animals were treated with humanized anti-STn ADCs (1 mg/kg, 2.5 mg/kg, 5 mg/kg), an isotype ADC (1 mg/kg, 5 mg/kg), Paclitaxel (20 mg/kg) or vehicle alone. ADCs were administrated intravenously once per week for four weeks. Paclitaxel was administrated intraperitoneally once per week for three weeks. […] At the end of the study, tumor tissues were collected and analyzed using immunohistochemistry for expression of STn.

[2] = tested on: Primary patient CRC samples; test: STn expression in primary patient CRC samples by flow cytometry; format: cell-based; details: % of viable CD45−/CD34− population
Description: Primary patient CRC samples were probed by flow cytometry with hSIA101 and two commercial antibodies B72.3 and CC49. All 10 samples tested were STn positive. In the table, % STn is expressed as % of viable CD45−/CD34− population. STn expression was often more robustly identified with hSIA101 than the commercial antibodies.

Molecule: CC(=O)O[C@H]1C(=O)[C@@]2(C)[C@H]([C@H](OC(=O)c3ccccc3)[C@]3(O)C[C@H](OC(=O)[C@H](O)[C@@H](NC(=O)c4ccccc4)c4ccccc4)C(C)=C1C3(C)C)[C@]1(OC(C)=O)CO[C@@H]1C[C@@H]2O [Paclitaxel]
- Mean tumor volume ([1]; Day 1): 161.2 mm^3
- Mean tumor volume ([1]; Day 4): 210.0 mm^3
- Mean tumor volume ([1]; Day 9): 370.0 mm^3
- Mean tumor volume ([1]; Day 12): 482.3 mm^3
- Mean tumor volume ([1]; Day 15): 620.4 mm^3
- Mean tumor volume ([1]; Day 18): 767.4 mm^3
- Mean tumor volume ([1]; Day 23): 971.6 mm^3
- Mean tumor volume ([1]; Day 26): 1133.0 mm^3
- Mean tumor volume ([1]; Day 30): 1277.8 mm^3
- Mean tumor volume ([1]; Day 31): 1385.2 mm^3

B1: B72.3: commercial anti-STn antibody (antibody, chains of the INN, looked up, V domains shown)
VH: QVQLQQSDAELVKPGASVKISCKASGYTFTDHAIHWAKQKPEQGLEWIGYISPGNDDIKYNEKFKGKATLTADKSSSTAYMQLNSLTSEDSAVYFCKRSYYGHWGQGTTLTVSS
VL: DIQMTQSPASLSVSVGETVTITCRASENIYSNLAWYQQKQGKSPQLLVYAATNLADGVPSRFSGSGSGTQYSLKINSLQSEDFGSYYCQHFWGTPYTFGGGTRLEIK
- % STn+ ([2]; Sample 160093-2, Colon): 18.9%
- % STn+ ([2]; Sample 160101-2, Colon): 5.8%
- % STn+ ([2]; Sample 160102-2, Colon): 14.7%
- % STn+ ([2]; Sample 160104-2, Colon Met to Liver): 46.6%
- % STn+ ([2]; Sample 160115-2, Colon): 13%
- % STn+ ([2]; Sample 160127-2, Colon): 14.4%
- % STn+ ([2]; Sample 160149-1, Colon): 10.5%
- % STn+ ([2]; Sample 160151-1, Colon): 6.8%
- % STn+ ([2]; Sample 169068-1, Colon): 7.4%
- % STn+ ([2]; Sample 1601666, Colon): 17.3%
